Laboratory results reported in ChEMBL document CHEMBL1128713, “N-alkylated nitrogen-in-the-ring sugars: conformational basis of inhibition of glycosidases and HIV-1 replication” (J Med Chem, 1995).
In brackets after ≈: the same amount, converted by molar mass.

Legend:
[1] = biological target: T1, Mannosidase 2, alpha B1 (Rattus norvegicus, UniProt Q6P762); assay: Inhibition of lysosomal Alpha-mannosidase II in rat liver; format: tissue-based
T1 sequence (Q6P762 whole entry): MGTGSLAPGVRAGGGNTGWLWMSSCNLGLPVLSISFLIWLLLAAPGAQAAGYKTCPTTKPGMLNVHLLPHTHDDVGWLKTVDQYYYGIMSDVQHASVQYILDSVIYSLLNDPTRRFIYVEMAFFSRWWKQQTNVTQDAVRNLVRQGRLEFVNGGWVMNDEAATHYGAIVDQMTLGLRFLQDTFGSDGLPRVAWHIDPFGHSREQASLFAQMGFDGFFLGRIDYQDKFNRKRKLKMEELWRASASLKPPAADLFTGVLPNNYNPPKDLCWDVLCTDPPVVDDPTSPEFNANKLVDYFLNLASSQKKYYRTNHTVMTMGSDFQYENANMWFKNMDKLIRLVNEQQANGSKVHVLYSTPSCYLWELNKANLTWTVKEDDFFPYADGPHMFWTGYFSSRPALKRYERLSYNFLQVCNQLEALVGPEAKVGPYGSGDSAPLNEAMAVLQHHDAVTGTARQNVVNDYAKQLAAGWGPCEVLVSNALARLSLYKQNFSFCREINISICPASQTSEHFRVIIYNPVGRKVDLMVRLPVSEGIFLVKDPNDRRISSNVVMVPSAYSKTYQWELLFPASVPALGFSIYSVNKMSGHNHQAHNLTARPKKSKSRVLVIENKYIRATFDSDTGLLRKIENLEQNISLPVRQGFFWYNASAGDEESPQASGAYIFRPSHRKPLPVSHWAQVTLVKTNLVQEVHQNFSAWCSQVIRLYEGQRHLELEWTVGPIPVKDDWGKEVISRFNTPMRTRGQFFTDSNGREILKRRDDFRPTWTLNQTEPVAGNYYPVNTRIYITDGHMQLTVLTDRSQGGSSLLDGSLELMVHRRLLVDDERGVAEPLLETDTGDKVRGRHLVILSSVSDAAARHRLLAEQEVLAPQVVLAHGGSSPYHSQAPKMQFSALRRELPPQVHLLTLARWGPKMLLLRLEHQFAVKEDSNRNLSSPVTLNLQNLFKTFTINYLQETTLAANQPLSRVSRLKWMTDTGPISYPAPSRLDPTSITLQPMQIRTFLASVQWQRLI

[2] = biological target: T2, Alpha-mannosidase 2C1 (Rattus norvegicus, UniProt P21139); assay: Inhibition of soluble Alpha-mannosidase II in rat liver; format: tissue-based
T2 sequence (P21139 whole entry): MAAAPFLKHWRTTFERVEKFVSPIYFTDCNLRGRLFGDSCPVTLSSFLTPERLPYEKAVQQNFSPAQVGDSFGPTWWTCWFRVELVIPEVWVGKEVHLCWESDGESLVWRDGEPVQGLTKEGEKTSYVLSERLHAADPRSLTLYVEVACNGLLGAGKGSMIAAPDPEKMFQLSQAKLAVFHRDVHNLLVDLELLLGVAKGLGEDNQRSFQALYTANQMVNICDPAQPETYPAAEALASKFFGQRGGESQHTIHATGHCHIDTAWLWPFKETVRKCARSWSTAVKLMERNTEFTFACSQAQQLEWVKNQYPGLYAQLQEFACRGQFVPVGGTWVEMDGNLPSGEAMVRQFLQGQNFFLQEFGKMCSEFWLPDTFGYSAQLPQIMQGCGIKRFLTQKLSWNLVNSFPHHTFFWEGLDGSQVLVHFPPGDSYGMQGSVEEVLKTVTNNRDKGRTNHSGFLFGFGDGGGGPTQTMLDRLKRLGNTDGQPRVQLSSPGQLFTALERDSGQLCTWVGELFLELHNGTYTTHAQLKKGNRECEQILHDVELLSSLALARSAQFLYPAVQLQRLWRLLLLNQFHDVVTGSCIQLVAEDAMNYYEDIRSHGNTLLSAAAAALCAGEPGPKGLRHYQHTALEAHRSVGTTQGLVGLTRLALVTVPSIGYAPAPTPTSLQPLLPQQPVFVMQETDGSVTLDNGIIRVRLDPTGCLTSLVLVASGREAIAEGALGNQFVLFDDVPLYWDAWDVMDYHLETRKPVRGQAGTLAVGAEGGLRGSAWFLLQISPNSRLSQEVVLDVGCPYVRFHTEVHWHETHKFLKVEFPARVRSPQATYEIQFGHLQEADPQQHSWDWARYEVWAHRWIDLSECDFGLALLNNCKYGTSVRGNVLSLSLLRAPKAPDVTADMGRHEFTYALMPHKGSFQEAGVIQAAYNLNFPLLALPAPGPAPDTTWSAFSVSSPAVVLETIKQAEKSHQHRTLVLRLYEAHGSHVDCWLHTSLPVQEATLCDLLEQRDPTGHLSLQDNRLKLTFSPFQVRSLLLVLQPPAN

[3] = biological target: T3, Alpha-mannosidase 2 (Rattus norvegicus, UniProt P28494); assay: Inhibition of golgi Alpha-mannosidase II in rat liver; format: tissue-based
T3 sequence (P28494 whole entry): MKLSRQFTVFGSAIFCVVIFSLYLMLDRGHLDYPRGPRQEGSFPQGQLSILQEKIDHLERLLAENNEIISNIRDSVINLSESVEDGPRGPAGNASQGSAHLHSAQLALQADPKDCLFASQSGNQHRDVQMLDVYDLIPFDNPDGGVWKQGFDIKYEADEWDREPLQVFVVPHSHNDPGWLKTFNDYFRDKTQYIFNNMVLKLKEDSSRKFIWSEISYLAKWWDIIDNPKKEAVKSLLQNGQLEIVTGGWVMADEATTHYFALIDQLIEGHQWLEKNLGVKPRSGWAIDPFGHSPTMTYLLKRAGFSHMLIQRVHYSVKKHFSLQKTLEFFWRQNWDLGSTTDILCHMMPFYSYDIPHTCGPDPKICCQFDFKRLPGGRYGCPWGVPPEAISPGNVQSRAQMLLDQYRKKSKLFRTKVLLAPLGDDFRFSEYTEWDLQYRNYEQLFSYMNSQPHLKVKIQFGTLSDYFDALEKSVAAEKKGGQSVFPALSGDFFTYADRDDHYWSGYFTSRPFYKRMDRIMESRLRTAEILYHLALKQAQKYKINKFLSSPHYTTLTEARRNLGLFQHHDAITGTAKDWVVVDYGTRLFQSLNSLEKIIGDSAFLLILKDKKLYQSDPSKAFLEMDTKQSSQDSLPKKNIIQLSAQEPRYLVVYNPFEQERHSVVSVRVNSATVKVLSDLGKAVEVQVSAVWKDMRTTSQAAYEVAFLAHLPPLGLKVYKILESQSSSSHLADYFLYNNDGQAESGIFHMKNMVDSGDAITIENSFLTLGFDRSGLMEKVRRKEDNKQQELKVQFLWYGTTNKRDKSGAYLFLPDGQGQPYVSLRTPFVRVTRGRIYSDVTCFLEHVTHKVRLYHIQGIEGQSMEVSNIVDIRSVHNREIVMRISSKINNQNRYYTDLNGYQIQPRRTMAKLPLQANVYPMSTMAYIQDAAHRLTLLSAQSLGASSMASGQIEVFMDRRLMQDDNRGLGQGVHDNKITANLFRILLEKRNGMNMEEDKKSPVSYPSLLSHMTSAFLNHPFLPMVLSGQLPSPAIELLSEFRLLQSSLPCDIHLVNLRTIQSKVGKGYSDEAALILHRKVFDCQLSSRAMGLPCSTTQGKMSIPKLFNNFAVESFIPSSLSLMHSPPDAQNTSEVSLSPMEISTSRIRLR

[4] = Inhibition of endoplasmic reticulum Alpha-Glucosidase II in rat liver; format: tissue-based
[5] = Inhibition of lysosomal Alpha-Glucosidase II in rat liver
[6] = Inhibition of Cellobiase in rat intestinal brush border membranes by D-glucose oxidase-peroxidase method; format: cell membranes, Membrane
[7] = biological target: T4, Sucrase-isomaltase, intestinal (Rattus norvegicus, UniProt P23739); assay: Inhibition of Glycosidases (isomaltase)in rat intestinal brush border membranes by D-glucose oxidase-peroxidase method; format: cell membranes, Membrane
T4 sequence (P23739 1-1013 limits assumed): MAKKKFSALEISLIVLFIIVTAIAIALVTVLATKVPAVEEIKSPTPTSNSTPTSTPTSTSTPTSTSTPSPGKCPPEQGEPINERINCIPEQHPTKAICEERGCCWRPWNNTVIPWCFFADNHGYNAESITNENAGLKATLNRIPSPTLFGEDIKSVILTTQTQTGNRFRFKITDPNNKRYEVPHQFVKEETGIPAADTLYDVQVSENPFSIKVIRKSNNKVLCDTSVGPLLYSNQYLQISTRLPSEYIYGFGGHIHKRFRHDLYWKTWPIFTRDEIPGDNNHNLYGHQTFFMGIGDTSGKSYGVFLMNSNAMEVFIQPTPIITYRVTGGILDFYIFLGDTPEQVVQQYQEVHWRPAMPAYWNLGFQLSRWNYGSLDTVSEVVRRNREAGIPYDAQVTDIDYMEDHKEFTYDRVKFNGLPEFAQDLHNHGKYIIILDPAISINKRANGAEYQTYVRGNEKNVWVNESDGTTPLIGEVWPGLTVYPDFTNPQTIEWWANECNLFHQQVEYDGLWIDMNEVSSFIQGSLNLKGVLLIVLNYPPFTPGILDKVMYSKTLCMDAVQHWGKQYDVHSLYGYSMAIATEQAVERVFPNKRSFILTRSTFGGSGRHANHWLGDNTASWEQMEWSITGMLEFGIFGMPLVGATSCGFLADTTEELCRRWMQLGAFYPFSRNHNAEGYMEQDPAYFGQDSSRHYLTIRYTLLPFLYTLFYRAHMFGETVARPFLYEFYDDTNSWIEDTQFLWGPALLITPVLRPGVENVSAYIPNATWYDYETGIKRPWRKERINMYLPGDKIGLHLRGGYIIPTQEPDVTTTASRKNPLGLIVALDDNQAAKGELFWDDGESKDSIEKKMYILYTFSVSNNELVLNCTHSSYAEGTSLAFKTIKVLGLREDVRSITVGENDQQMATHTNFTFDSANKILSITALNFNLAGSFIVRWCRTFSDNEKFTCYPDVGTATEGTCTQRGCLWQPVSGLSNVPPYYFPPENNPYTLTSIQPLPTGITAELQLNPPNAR
T4 sequence (P23739 1014-1841 limits assumed): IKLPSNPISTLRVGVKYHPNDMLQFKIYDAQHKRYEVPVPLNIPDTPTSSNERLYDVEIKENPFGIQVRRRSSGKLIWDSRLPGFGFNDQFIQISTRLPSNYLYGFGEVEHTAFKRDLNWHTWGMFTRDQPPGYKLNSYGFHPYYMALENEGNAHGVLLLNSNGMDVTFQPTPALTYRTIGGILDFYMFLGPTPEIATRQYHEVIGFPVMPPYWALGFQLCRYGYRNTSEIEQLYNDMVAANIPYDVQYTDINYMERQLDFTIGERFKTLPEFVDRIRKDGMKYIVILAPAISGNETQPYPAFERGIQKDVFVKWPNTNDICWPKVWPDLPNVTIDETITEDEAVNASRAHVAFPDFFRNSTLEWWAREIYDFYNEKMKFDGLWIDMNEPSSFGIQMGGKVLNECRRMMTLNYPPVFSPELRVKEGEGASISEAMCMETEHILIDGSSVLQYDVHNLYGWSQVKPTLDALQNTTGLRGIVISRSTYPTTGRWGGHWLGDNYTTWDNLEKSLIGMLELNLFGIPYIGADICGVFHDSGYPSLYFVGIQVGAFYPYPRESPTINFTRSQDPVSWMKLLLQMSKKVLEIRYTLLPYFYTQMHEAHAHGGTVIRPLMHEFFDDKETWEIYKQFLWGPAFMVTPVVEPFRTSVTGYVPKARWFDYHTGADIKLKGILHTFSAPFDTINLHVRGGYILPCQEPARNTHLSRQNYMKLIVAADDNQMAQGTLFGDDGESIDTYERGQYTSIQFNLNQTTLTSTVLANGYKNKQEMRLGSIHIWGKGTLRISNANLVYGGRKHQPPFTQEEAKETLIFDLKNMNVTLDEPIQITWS

[8] = biological target: Lactase/phlorizin hydrolase (Rattus norvegicus, UniProt Q02401); assay: Inhibition of Glycosidases (lactase)in rat intestinal brush border membranes by D-glucose oxidase-peroxidase method; format: cell membranes, Membrane
Sequence of Lactase/phlorizin hydrolase (Q02401 868-1928 limits assumed): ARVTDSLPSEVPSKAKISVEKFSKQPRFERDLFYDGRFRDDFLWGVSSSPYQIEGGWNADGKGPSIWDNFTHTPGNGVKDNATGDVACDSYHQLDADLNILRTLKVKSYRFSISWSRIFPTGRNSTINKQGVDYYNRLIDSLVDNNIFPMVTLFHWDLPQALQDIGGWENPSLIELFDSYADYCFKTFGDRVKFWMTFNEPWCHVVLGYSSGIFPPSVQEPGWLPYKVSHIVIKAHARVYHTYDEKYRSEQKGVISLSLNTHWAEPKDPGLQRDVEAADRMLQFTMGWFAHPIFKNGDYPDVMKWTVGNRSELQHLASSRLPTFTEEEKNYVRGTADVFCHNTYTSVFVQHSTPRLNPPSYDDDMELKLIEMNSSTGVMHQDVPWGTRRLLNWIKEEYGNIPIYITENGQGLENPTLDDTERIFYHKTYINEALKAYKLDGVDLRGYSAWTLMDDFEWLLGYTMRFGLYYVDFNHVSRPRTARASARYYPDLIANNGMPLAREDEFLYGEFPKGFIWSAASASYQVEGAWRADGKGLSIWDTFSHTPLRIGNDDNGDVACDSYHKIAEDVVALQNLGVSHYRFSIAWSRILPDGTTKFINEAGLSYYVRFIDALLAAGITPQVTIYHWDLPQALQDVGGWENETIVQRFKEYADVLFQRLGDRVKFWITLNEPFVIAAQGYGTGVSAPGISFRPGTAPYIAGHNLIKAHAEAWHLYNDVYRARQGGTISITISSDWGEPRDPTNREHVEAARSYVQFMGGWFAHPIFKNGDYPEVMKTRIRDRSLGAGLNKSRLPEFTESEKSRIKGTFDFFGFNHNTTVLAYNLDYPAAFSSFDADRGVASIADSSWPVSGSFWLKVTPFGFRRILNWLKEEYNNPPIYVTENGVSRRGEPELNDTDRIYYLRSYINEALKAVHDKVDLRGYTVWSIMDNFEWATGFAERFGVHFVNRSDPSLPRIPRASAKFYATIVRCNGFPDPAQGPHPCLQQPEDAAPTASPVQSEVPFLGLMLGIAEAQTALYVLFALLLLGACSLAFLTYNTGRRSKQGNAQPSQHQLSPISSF

[9] = tested on: MOLT-4; assay: Concentration giving 50% inhibition of HIV-1 induced cytopathogenicity in MOLT-4 cells; format: functional, cell-based, Homo sapiens
[10] = tested on: MT4; assay: Concentration giving 50% inhibition of HIV-1 induced cytopathogenicity in MT-4 cells; format: functional, cell-based, Homo sapiens
[11] = biological target: T4, Sucrase-isomaltase, intestinal; assay: Inhibition of Sucrase in rat intestinal brush border membranes by D-glucose oxidase-peroxidase method; format: cell membranes, Membrane
[12] = biological target: T3, Alpha-mannosidase 2; assay: Competitive Inhibitory activity against Golgi Alpha-mannosidase II
[13] = Competitive Inhibitory activity against Endoplasmic reticulum Alpha-Glucosidase II; set-up: species or system Rattus norvegicus
[14] = biological target: T5, Trehalase (Rattus norvegicus, UniProt O70282); assay: Inhibition of Glycosidases (trehalase)in rat intestinal brush border membranes by D-glucose oxidase-peroxidase method; format: cell membranes, Membrane
T5 sequence (O70282 whole entry): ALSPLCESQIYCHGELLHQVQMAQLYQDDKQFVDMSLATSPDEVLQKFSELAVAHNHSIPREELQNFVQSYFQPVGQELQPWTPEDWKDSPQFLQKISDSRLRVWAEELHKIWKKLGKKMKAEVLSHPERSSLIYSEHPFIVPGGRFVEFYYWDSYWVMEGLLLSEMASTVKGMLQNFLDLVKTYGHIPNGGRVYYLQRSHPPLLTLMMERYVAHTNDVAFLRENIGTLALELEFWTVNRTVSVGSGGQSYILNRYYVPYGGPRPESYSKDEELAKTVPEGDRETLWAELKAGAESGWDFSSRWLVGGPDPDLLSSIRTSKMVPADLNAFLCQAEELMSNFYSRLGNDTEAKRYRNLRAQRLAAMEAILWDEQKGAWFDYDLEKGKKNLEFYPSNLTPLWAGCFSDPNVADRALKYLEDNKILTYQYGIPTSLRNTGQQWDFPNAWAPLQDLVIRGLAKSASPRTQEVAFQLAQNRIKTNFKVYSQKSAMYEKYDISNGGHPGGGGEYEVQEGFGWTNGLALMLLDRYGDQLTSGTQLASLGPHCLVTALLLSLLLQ

| IC50 [1] | IC50 [2] | IC50 [3] | IC50 [4] | IC50 [5] | IC50 [6] | IC50 [7] | IC50 [8] | EC50 [9] | IC50 [11] | Ki [12] | Ki [13] | IC50 [14] | Compound | EC50 [10] |
| --- | --- | --- | --- | --- | --- | --- | --- | --- | --- | --- | --- | --- | --- | --- |
| < 50 µM | 190 µM | < 50 µM | < 50 µM | 470 µM | < 50 µM | < 50 µM | < 50 µM | > 100 µg/mL | 620 µM | – | – | – | CN1[C@H](CO)[C@@H](O)[C@H](O)[C@H]1CO | > 100 µg/mL |
| < 50 µM | 850 µM | < 50 µM | < 50 µM | < 50 µM | < 50 µM | < 50 µM | < 50 µM | > 100 µg/mL | < 50 µM | – | – | – | CCCCN1[C@H](CO)[C@@H](O)[C@H](O)[C@H]1CO | > 100 µg/mL |
| < 50 µM | 260 µM | – | < 50 µM | – | – | 91 µM | – | > 100 µg/mL | 44 µM | – | – | – | OC[C@H]1N[C@H](CO)[C@@H](O)[C@@H]1O | > 100 µg/mL |
| 1000 µM | 500 µM | < 50 µM | 20 µM | 1.5 µM | – | 4.4 µM | 4.4 µM | 100 µg/mL (≈ 564 µM) | 0.04 µM | < 50 µM | 5.8 µM | 28 µM | CN1C[C@H](O)[C@@H](O)[C@H](O)[C@H]1CO | 69 µg/mL (≈ 389 µM) |
| – | – | 46 µM | 20 µM | 130 µM | < 50 µM | – | 260 µM | > 100 µg/mL | – | 35 µM | 9.7 µM | 25 µM | OC[C@H]1NC[C@@H](O)[C@@H]1O | > 100 µg/mL |
| – | – | < 50 µM | – | 0.4 µM | – | – | – | > 100 µg/mL | – | < 50 µM | – | – | OC[C@H]1NC[C@H](O)[C@@H](O)[C@@H]1O [DUVOGLUSTAT] | > 100 µg/mL |
| < 50 µM | < 50 µM | 130 µM | 200 µM | 750 µM | < 50 µM | 340 µM | < 50 µM | > 100 µg/mL | 270 µM | 120 µM | 95 µM | < 50 µM | CCCCN1C[C@@H](O)[C@H](O)[C@H]1CO | > 100 µg/mL |
| < 50 µM | < 50 µM | < 50 µM | 15 µM | 5.3 µM | < 50 µM | – | – | 37 µg/mL (≈ 169 µM) | – | < 50 µM | 3.7 µM | 13 µM | CCCCN1C[C@H](O)[C@@H](O)[C@H](O)[C@H]1CO | 49 µg/mL (≈ 223 µM) |
| 360 µM | < 50 µM | 64 µM | 310 µM | 180 µM | < 50 µM | 100 µM | < 50 µM | > 100 µg/mL | 70 µM | 51 µM | 150 µM | < 50 µM | CN1C[C@@H](O)[C@H](O)[C@H]1CO | > 100 µg/mL |
